The source of these data is patent US20110195898A1, “TREATMENT OF ALZHEIMER'S DISEASE AND MILD COGNITIVE IMPAIRMENT USING GNRH-I ANALOGS AND ONE OR MORE OF ACETYLCHOLINESTERASE INHIBITORS AND NMDA RECEPTOR ANTAGONISTS” (Voyager Pharmaceutical Corporation, priority 2004, published 2011).

Structures can show the parent of a compound that is named as a salt.

For data set [1] the following is noted: in vivo; cited from earlier work.
Data set [2] has as its system mild-to-moderate Alzheimer's disease patients. The note with it: cited from earlier work.
In data set [3] the test system is women diagnosed with mild-to-moderate Alzheimer's Disease. Description: ADAS-Cog test, 48-week double-blind placebo-controlled clinical trial. The format is in vivo, human. The method, then: During 2004-2005, a 48-week, double-blind placebo-controlled dose ranging study was conducted in 108 women diagnosed with mild-to-moderate Alzheimer's Disease. The study inclusion criteria included a requirement that each patient either (a) is taking a cholinesterase inhibitor, began taking it at least 90 days prior to the trial and is likely to continue taking it at the same dosage level throughout the trial; or (b) has never taken a cholinesterase inhibitor or has stopped taking at least 90 days prior to the trial and is likely to remain off cholinesterase inhibitors throughout the trial. The patients in the subgroup taking cholinesterase inhibitors were in turn divided into two groups for analysis purposes:
Group 1 patients were administered an injectable 22.5 mg formulation of leuprolide acetate in combination with a stable dose of acetylcholinesterase inhibitors (AChEI). At the completion of the study, Group 1 included 24 subjects. Group 2 patients were administered a placebo injection (saline) in combination with a stable dose of AChEI. […]
During the Phase II study, the administrations of leuprolide acetate and placebo occurred at weeks 0, 12, 24, 36, and 48 of the study, whereas doses of AChE inhibitors were taken as prescribed by a physician (determined as the proper beneficial level) to each specific patient before enrollment. […]

The test system of data set [4] is neuroblastoma cell lines (DAOY, SKNMC, CCF-SttG1). Description: Cell growth assay (WST-8, 96 well), neuroblastoma cell lines. Type of data set: cell-based. The settings on record: 10^-5 M (12.25 μg/ml) vs 0 M control, WST-8, optical density 450 nm, FIG. 5. The method, then: (§1) For cell growth assays in a 96 well format, a specific number of cells were plated (about 1000 cells for each line). All cell lines were plated in their respective growth media (supplemented with either 1% regular fetal bovine serum, 1% charcoal/dextran-stripped fetal bovine serum or 0.25% Albumax™ (Invitrogen Corp., Grand Island N.Y.)) and allowed to settle for 24 hours. Leuprolide treatments were commenced […]. A 10 mM (12.25 mg/ml) solution of leuprolide acetate salt in phosphate buffered saline was prepared and diluted appropriately to obtain the desired final concentrations. Treatment concentrations were 0 M (control) and 10^−5 M (shown as 1.00E-5, 12.25 μg/ml). The number of cells in each group was measured by incubating cells with WST-8 (2-(2-methoxy-4-nitrophenyl)-3-(4-nitrophenyl)-5-(2,4-disulfophenyl)-2H-tetrazolium, monosodium salt) which produces a water soluble formazan dye that was detected by measuring optical density (at 450 nm) using a μQuant™ Universal Microplate Spectrophotometer (Bio-Tek® Instruments, Inc., Winooski, Vt.).
Background: Tetrazolium assays rely on reduction of a dye to a coloured formazan, in cell work by metabolically active cells.

Data set [5] has as its system glioblastoma cell lines (LN229, U87, U118MG). In words: Cell growth assay (WST-8, 96 well), glioblastoma cell lines. The settings on record: 10^-5 M (12.25 μg/ml) vs 0 M control, WST-8, optical density 450 nm, FIG. 5. Type of data set: cell-based. The protocol:
as §1

A further data set concerns testosterone suppression. The note with it: Fowler et al. 2000; cited from earlier work.
The subject of another data set is men with prostate cancer. The note with it: daily injections for up to two years, Lupron Depot package insert; cited from earlier work.

On to `CC12CC3CC(C)(C1)CC(N)(C3)C2` [Memantine], for which the “dose excreted in the urine unchanged” value in data set [1] is given as “up to 82%”.

In the case of `COc1cc2c(cc1OC)C(=O)C(CC1CCN(Cc3ccccc3)CC1)C2` (stereo not drawn) [donepezil, Donepezil], in data set [2] (Wilcock et al., one year trial comparing two AChEIs), the “decline on ADAS-cog after 52 weeks of treatment” value is listed as 3.43±0.8 points.

With `CCNC(=O)[C@@H]1CCCN1C(=O)[C@H](CCCNC(=N)N)NC(=O)[C@H](CC(C)C)NC(=O)[C@@H](CC(C)C)NC(=O)[C@H](Cc1ccc(O)cc1)NC(=O)[C@H](CO)NC(=O)[C@H](Cc1c[nH]c2ccccc12)NC(=O)[C@H](Cc1c[nH]cn1)NC(=O)[C@@H]1CCC(=O)N1` [leuprolide acetate, 5-oxo-L-prolyl-L-histidyl-L-tryptophyl-L-seryl-L-tyrosyl-D-leucyl-L-leucyl-L-arginyl-N-ethyl-L-prolinamide acetate (salt)], the “cognitive decline as percent of expected no-treatment decline” value in data set [3] (100% decline = 5.6 ADAS-cog points in a year (literature placebo)) was determined as 84%. The “decline on ADAS-cog (mean change from baseline)” value in data set [3] (females, over 48 weeks, stable dose of AChEI, leuprolide acetate (Lupron Depot) 22.5 mg at 12-week intervals where given) is on record as 4.68 points. Also, the “cell growth of neuroblastoma cell lines” value in data set [4] is recorded as “inhibits cell growth”; in data set [4] (listed as Leuprolide), “very effective at slowing the growth”. For the same molecule, the “cell growth of glioblastoma cell lines” value is given as “inhibits cell growth” in data set [5] and “very effective at slowing the growth” in data set [5] (listed as Leuprolide). Moreover, the “serum concentration considered adequate for testosterone suppression” value with testosterone suppression was “less than 1 ng/ml”. Moreover, the “adverse effects of 20 mg per day versus 1 mg per day” value in the data set with men with prostate cancer was “did not result in any adverse effects different from what was seen with the 1 mg dose”.

Consider `NCCCS(=O)(=O)O` [tramiprosate], for which, in data set [2] (ongoing trial, overall decline, mild patients), the “overall 18 month decline on ADAS-cog, mild patients” value is 5.5 points. Also, the “overall 18 month decline on ADAS-cog, moderate patients” value in data set [2] (ongoing trial, overall decline, moderate patients) was 6.3 points.
